Reference: ChEMBL document CHEMBL2434921, “New synthetic aliphatic sulfonamido-quaternary ammonium salts as anticancer chemotherapeutic agents” (2013)
Active and inactive are the calls of the source. The rule behind the calls is not given here.

Tests used:
MDA-MB-231 [1] = experiment: Growth of human MDA-MB-231 cells at 10 uM after 48 hrs by SRB assay; conditions: MDA-MB-231, 48 h
NCI-H23 [2] = experiment: Growth inhibition of human NCI-H23 cells at 1 uM after 48 hrs by SRB assay; values are per cent of control; conditions: NCI-H23, 48 h
NUGC-3 [3] = experiment: Growth inhibition of human NUGC3 cells after 48 hrs by SRB assay; type: functional; conditions: NUGC-3, 48 h
NUGC-3 [4] = experiment: Growth of human NUGC3 cells at 1 uM after 48 hrs by SRB assay; conditions: NUGC-3, 48 h
PC-3 [5] = experiment: Growth of human PC3 cells at 10 uM after 48 hrs by SRB assay; conditions: PC-3, 48 h
NCI-H23 [6] = experiment: Growth inhibition of human NCI-H23 cells at 0.1 uM after 48 hrs by SRB assay; values are per cent of control; conditions: NCI-H23, 48 h
ACHN [7] = experiment: Growth of human ACHN cells at 0.1 uM after 48 hrs by SRB assay
MDA-MB-231 [8] = experiment: Growth inhibition of human MDA-MB-231 cells at 0.3 uM after 48 hrs by SRB assay; values are per cent of control; conditions: MDA-MB-231, 48 h
PC-3 [9] = experiment: Growth inhibition of human PC3 cells at 0.1 uM after 48 hrs by SRB assay; values are per cent of control; conditions: PC-3, 48 h
ACHN [10] = experiment: Growth inhibition of human ACHN cells at 3 uM after 48 hrs by SRB assay; values are per cent of control
HCT-15 [11] = experiment: Growth inhibition of human HCT15 cells after 48 hrs by SRB assay; type: functional; conditions: HCT-15, 48 h
PC-3 [12] = experiment: Growth inhibition of human PC3 cells at 0.3 uM after 48 hrs by SRB assay; values are per cent of control; conditions: PC-3, 48 h
NCI-H23 [13] = experiment: Growth of human NCI-H23 cells at 10 uM after 48 hrs by SRB assay; conditions: NCI-H23, 48 h
HCT-15 [14] = experiment: Growth of human HCT15 cells at 0.3 uM after 48 hrs by SRB assay; conditions: HCT-15, 48 h
NUGC-3 [15] = experiment: Growth of human NUGC3 cells at 0.1 uM after 48 hrs by SRB assay; conditions: NUGC-3, 48 h
[16] = molecular target: Rho-related GTP-binding protein RhoB (Homo sapiens) (UniProt P62745); experiment: Transactivation of RhoB (unknown origin) transfected in human HeLa cells at 5 uM measured over 10 secs by dual luciferase reporter gene assay; type: cell-based
Sequence of Rho-related GTP-binding protein RhoB (Homo sapiens) (P62745 whole entry): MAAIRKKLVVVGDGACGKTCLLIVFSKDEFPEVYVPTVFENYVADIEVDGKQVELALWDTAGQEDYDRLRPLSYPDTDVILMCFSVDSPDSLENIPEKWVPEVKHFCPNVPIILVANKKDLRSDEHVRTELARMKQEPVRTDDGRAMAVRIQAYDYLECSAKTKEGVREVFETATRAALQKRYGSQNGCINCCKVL

ACHN [17] = experiment: Growth inhibition of human ACHN cells at 1 uM after 48 hrs by SRB assay; values are per cent of control
MDA-MB-231 [18] = experiment: Growth of human MDA-MB-231 cells at 3 uM after 48 hrs by SRB assay; values are per cent of control; conditions: MDA-MB-231, 48 h
MDA-MB-231 [19] = experiment: Growth of human MDA-MB-231 cells at 0.1 uM after 48 hrs by SRB assay; conditions: MDA-MB-231, 48 h
ACHN [20] = experiment: Growth of human ACHN cells at 10 uM after 48 hrs by SRB assay
HCT-15 [21] = experiment: Growth inhibition of human HCT15 cells at 0.1 uM after 48 hrs by SRB assay; values are per cent of control; conditions: HCT-15, 48 h
NCI-H23 [22] = experiment: Growth inhibition of human NCI-H23 cells at 3 uM after 48 hrs by SRB assay; values are per cent of control; conditions: NCI-H23, 48 h
ACHN [23] = experiment: Growth of human ACHN cells at 0.3 uM after 48 hrs by SRB assay
PC-3 [24] = experiment: Growth inhibition of human PC3 cells at 1 uM after 48 hrs by SRB assay; values are per cent of control; conditions: PC-3, 48 h
HCT-15 [25] = experiment: Growth inhibition of human HCT15 cells at 1 uM after 48 hrs by SRB assay; values are per cent of control; conditions: HCT-15, 48 h
PC-3 [26] = experiment: Growth inhibition of human PC3 cells after 48 hrs by SRB assay; type: functional; conditions: PC-3, 48 h
PC-3 [27] = experiment: Growth inhibition of human PC3 cells at 3 uM after 48 hrs by SRB assay; values are per cent of control; conditions: PC-3, 48 h
MDA-MB-231 [28] = experiment: Growth of human MDA-MB-231 cells at 1 uM after 48 hrs by SRB assay; conditions: MDA-MB-231, 48 h
NCI-H23 [29] = experiment: Growth of human NCI-H23 cells at 0.3 uM after 48 hrs by SRB assay; conditions: NCI-H23, 48 h
HCT-15 [30] = experiment: Growth of human HCT15 cells at 3 uM after 48 hrs by SRB assay; conditions: HCT-15, 48 h
HCT-15 [31] = experiment: Growth inhibition of human HCT15 cells at 10 uM after 48 hrs by SRB assay; values are per cent of control; conditions: HCT-15, 48 h
MDA-MB-231 [32] = experiment: Growth inhibition of human MDA-MB-231 cells after 48 hrs by SRB assay; type: functional; conditions: MDA-MB-231, 48 h
ACHN [33] = experiment: Growth inhibition of human ACHN cells after 48 hrs by SRB assay; type: functional
NUGC-3 [34] = experiment: Growth inhibition of human NUGC3 cells at 10 uM after 48 hrs by SRB assay; values are per cent of control; conditions: NUGC-3, 48 h
NUGC-3 [35] = experiment: Growth inhibition of human NUGC3 cells at 3 uM after 48 hrs by SRB assay; values are per cent of control; conditions: NUGC-3, 48 h
NUGC-3 [36] = experiment: Growth of human NUGC3 cells at 0.3 uM after 48 hrs by SRB assay; conditions: NUGC-3, 48 h
NCI-H23 [37] = experiment: Growth inhibition of human NCI-H23 cells after 48 hrs by SRB assay; type: functional; conditions: NCI-H23, 48 h

Row | SMILES | growth, % of control at 10 µM (MDA-MB-231 [1]) [%] | growth, % of control at 1 µM (NCI-H23 [2]) [%] | GI50 (NUGC-3 [3]) [nM] | growth, % of control at 1 µM (NUGC-3 [4]) [%] | growth, % of control at 10 µM (PC-3 [5]) [%] | growth, % of control at 0.1 µM (NCI-H23 [6]) [%] | growth, % of control at 0.1 µM (ACHN [7]) [%] | growth, % of control at 0.3 µM (MDA-MB-231 [8]) [%] | growth, % of control at 0.1 µM (PC-3 [9]) [%] | growth, % of control at 3 µM (ACHN [10]) [%] | GI50 (HCT-15 [11]) [nM] | growth, % of control at 0.3 µM (PC-3 [12]) [%] | growth, % of control at 10 µM (NCI-H23 [13]) [%] | growth, % of control at 0.3 µM (HCT-15 [14]) [%] | growth, % of control at 0.1 µM (NUGC-3 [15]) [%] | Activity [16] | growth, % of control at 1 µM (ACHN [17]) [%] | growth, % of control at 3 µM (MDA-MB-231 [18]) [%] | growth, % of control at 0.1 µM (MDA-MB-231 [19]) [%] | growth, % of control at 10 µM (ACHN [20]) [%] | further results
1 | CCCCCCCCCCCCCCCCS(=O)(=O)N(C)CC[N+](CC)(CC)CC | 20 | 44.3 | 220 | 19.6 | -21.4 | 94 | 92.6 | 96.5 | 95.5 | 43.4 | 1610 | 84.7 | 3.4 | 87.6 | 69.8 | Active | 70.4 | 37.4 | 87.3 | 15.4 | growth, % of control at 0.1 µM (HCT-15 [21]): 83%; growth, % of control at 3 µM (NCI-H23 [22]): 15.5%; growth, % of control at 0.3 µM (ACHN [23]): 92.8%; growth, % of control at 1 µM (PC-3 [24]): 47.5%; growth, % of control at 1 µM (HCT-15 [25]): 73.5%; GI50 (PC-3 [26]): 520 nM; growth, % of control at 3 µM (PC-3 [27]): 11.3%; growth, % of control at 1 µM (MDA-MB-231 [28]): 65.5%; growth, % of control at 0.3 µM (NCI-H23 [29]): 93.7%; growth, % of control at 3 µM (HCT-15 [30]): 50.9%; growth, % of control at 10 µM (HCT-15 [31]): 21.8%; GI50 (MDA-MB-231 [32]): 1170 nM; GI50 (ACHN [33]): 1310 nM; growth, % of control at 10 µM (NUGC-3 [34]): -4%; growth, % of control at 3 µM (NUGC-3 [35]): 5.8%; growth, % of control at 0.3 µM (NUGC-3 [36]): 70.3%; GI50 (NCI-H23 [37]): 550 nM
2 | CCCCCCCCCCCCCCS(=O)(=O)N(C)CCC[N+](C)(C)C | 23.5 | 8 | 150 | 22.7 | -17.4 | 84.8 | 85.3 | 98.1 | 97.1 | 37.8 | 680 | 86.4 | -50.6 | 87.9 | 83.9 | Active | 57.2 | 42.1 | 102 | 27.1 | growth, % of control at 0.1 µM (HCT-15 [21]): 92.4%; growth, % of control at 3 µM (NCI-H23 [22]): -19.7%; growth, % of control at 0.3 µM (ACHN [23]): 93.4%; growth, % of control at 1 µM (PC-3 [24]): 18.6%; growth, % of control at 1 µM (HCT-15 [25]): 46.2%; GI50 (PC-3 [26]): 300 nM; growth, % of control at 3 µM (PC-3 [27]): -0.1%; growth, % of control at 1 µM (MDA-MB-231 [28]): 66.6%; growth, % of control at 0.3 µM (NCI-H23 [29]): 70.6%; growth, % of control at 3 µM (HCT-15 [30]): 29.9%; growth, % of control at 10 µM (HCT-15 [31]): 24.8%; GI50 (MDA-MB-231 [32]): 1260 nM; GI50 (ACHN [33]): 1010 nM; growth, % of control at 10 µM (NUGC-3 [34]): -12.9%; growth, % of control at 3 µM (NUGC-3 [35]): 8.5%; growth, % of control at 0.3 µM (NUGC-3 [36]): 42.8%; GI50 (NCI-H23 [37]): 210 nM
3 | CCCCCCCCCCCCCCCCS(=O)(=O)NCCC[N+](C)(C)C | 12.9 | 88.6 | 560 | 60.2 | -32.7 | 86.7 | 117 | 108 | 100 | 80.3 | 860 | 102 | -23.1 | 93 | 103 | Active | 112 | 41 | 103 | -7.7 | growth, % of control at 0.1 µM (HCT-15 [21]): 96%; growth, % of control at 3 µM (NCI-H23 [22]): 47.1%; growth, % of control at 0.3 µM (ACHN [23]): 119%; growth, % of control at 1 µM (PC-3 [24]): 64.6%; growth, % of control at 1 µM (HCT-15 [25]): 73.6%; GI50 (PC-3 [26]): 580 nM; growth, % of control at 3 µM (PC-3 [27]): -1%; growth, % of control at 1 µM (MDA-MB-231 [28]): 87%; growth, % of control at 0.3 µM (NCI-H23 [29]): 93.7%; growth, % of control at 3 µM (HCT-15 [30]): 22.4%; growth, % of control at 10 µM (HCT-15 [31]): 1.7%; GI50 (MDA-MB-231 [32]): 1390 nM; GI50 (ACHN [33]): 1890 nM; growth, % of control at 10 µM (NUGC-3 [34]): -37.7%; growth, % of control at 3 µM (NUGC-3 [35]): -5.5%; growth, % of control at 0.3 µM (NUGC-3 [36]): 93.6%; GI50 (NCI-H23 [37]): 1560 nM
